Structures are written as SMILES. Where two headings read alike, the source gives them in different places.

The test system of the assay is SK-OV-3 cells. The experiment in a line: Effect of compounds on tryptophan catabolism in SK-OV-3 cell line (inhibition of kynurenine production, LC-MS/MS). The class given is cell-based. The settings on record: SK-OV-3 cell line, 24 h incubation, kynurenine in supernatant by LC-MS/MS, read-out: IC50 Ranges (ic50 values for inhibition of Kynurenine production). In a few lines: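 Kynurenine in supernatants quantified by LC-MS/MS after 24 h compound exposure (37 °C; top 30 μM, eight 3-fold steps, duplicate) in DMEM F-12 containing 6 mg/mL L-tryptophan. Cells pre-plated overnight in McCoy's 5A with 10% FBS. Viability checked in parallel by ATP luminescence.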

The IC50 is the concentration needed to halve the response being measured. For `COC1CC(N(Cc2ccc(C)o2)C(=O)Nc2ccc(C#N)cc2)C1` (stereo not drawn) [Compound 216, 3-(4-cyanophenyl)-1-(3-methoxycyclobutyl)-1-[(5-methyl-2-furyl)methyl]urea], the IC50 (Homo sapiens, SK-OV-3, 24 h) was less than 100 nM.

Consider `CCN(Cc1ccc(C)o1)C(=O)Nc1ccccc1` [Compound 165, 1-ethyl-1-[(5-methyl-2-furyl)methyl]-3-phenyl-urea], for which the IC50 (Homo sapiens, SK-OV-3, 24 h) lay in the range of 1000 to 5000 nM.

Regarding `Cc1ccc(CN(C(=O)Nc2ccccc2)C2CCN(C(=O)OC(C)(C)C)CC2)o1` [Compound 136, tert-butyl 4-[(5-methyl-2-furyl)methyl-(phenylcarbamoyl)amino]piperidine-1-carboxylate], the IC50 (Homo sapiens, SK-OV-3, 24 h) was greater than 5000 nM.

For `O=C(Nc1ccccc1)N(Cc1ccccn1)C1CCCCC1` [Compound 32, 1-cyclohexyl-3-phenyl-1-(2-pyridylmethyl)urea], the IC50 (Homo sapiens, SK-OV-3, 24 h) was greater than 5000 nM.

Take `Cn1ncc(CN(C(=O)Nc2ccc(F)c(F)c2)C2CCCC2)c1Cl` [Compound 43, 1-[(5-chloro-1-methyl-pyrazol-4-yl)methyl]-1-cyclopentyl-3-(3,4-difluorophenyl) urea]: the IC50 (Homo sapiens, SK-OV-3, 24 h) was in the range of 1000 to 5000 nM.

In the case of `Cc1ccc(CN(C(=O)Nc2ccc(C#N)cc2)C2CC3(COC3)C2)o1` [Compound 287, 3-(4-cyanophenyl)-1-[(5-methyl-2-furyl)methyl]-1-(2-oxaspiro[3.3]heptan-6-yl)urea], the 50% inhibitory concentration (IC50) (Homo sapiens, SK-OV-3, 24 h) is greater than 5000 nM.

As for `Cc1ccc(CN(C(=O)Nc2ccc(Cl)cc2)c2cncn2C)o1` [Compound 242, 3-(4-chlorophenyl)-1-[(5-methyl-2-furyl)methyl]-1-(3-methylimidazol-4-yl) urea], the IC50 was 100 to 500 nM.

Turning to `COc1ccc(NC(=O)N(Cc2ccc(C)o2)C2CCCC2)cc1` [Compound 290, 1-cyclopentyl-3-(4-methoxyphenyl)-1-[(5-methyl-2-furyl)methyl]urea], the IC50 (Homo sapiens, SK-OV-3, 24 h) lay in the range of 100 to 500 nM.

For the compound `Cc1ccc(CN(C(=O)Nc2ccc(C#N)cc2)C2CCC(C#N)C2)o1` (stereo not drawn) [Compound 224, 1-(3-cyanocyclopentyl)-3-(4-cyanophenyl)-1-[(5-methyl-2-furyl)methyl]urea], for the setting “Homo sapiens, SK-OV-3, 24 h”, the IC50 lay within 100 to 500 nM.

Regarding `Cc1nocc1N(Cc1cccc(C(F)(F)F)c1)C(=O)Nc1ccc(-n2cc(CO)nn2)cc1` [Compound 308, 3-[4-[4-(hydroxymethyl)triazol-1-yl]phenyl]-1-(3-methylisoxazol-4-yl)-1-[[3-(trifluoromethyl)phenyl]methyl]urea], the 50% inhibitory concentration (IC50) (Homo sapiens, SK-OV-3, 24 h) was 500 to 1000 nM.

Take `Cc1ccc(CN(C(=O)Nc2ccc(C#N)cc2)c2conc2C)o1` [Compound 278, 3-(4-cyanophenyl)-1-[(5-methyl-2-furyl)methyl]-1-(3-methylisoxazol-4-yl)urea]: the IC50 (Homo sapiens, SK-OV-3, 24 h) is less than 100 nM.

For the compound `O=C(Nc1ccccc1)N(Cc1ccccn1)C1CCCC1` [Compound 67, 1-cyclopentyl-3-phenyl-1-(2-pyridylmethyl)urea], the IC50 (Homo sapiens, SK-OV-3, 24 h) fell in the range of 1000 to 5000 nM.

For `Cc1ccc(CN(C(=O)Nc2ccc(C#N)cc2)c2nonc2C)o1` [Compound 322, 3-(4-cyanophenyl)-1-[(5-methyl-2-furyl)methyl]-1-(4-methyl-1,2,5-oxadiazol-3-yl)urea], the IC50 (Homo sapiens, SK-OV-3, 24 h) is less than 100 nM.

`Cc1ccc(CN(C(=O)Nc2nnc(-c3ccccc3)o2)C2CCCC2)o1` [Compound 175, 1-cyclopentyl-1-[(5-methyl-2-furyl)methyl]-3-(5-phenyl-1,3,4-oxadiazol-2-yl) urea]: the IC50 (Homo sapiens, SK-OV-3, 24 h) fell in the range of 500 to 1000 nM.

Take `Cc1ccc(CN(C(=O)Nc2ccc(C#N)cc2)C2CCCC2(F)F)o1` (stereo not drawn) [Compound 214, 3-(4-cyanophenyl)-1-(2,2-difluorocyclopentyl)-1-[(5-methyl-2-furyl)methyl]urea]: the IC50 (Homo sapiens, SK-OV-3, 24 h) was less than 100 nM.

As to `CC1(CN(C(=O)Nc2ccc(F)cc2)C2CCCC2)CCN(S(C)(=O)=O)CC1` [Compound 113, 1-cyclopentyl-3-(4-fluorophenyl)-1-[(4-methyl-1-methylsulfonyl-4-piperidyl)methyl]urea], the IC50 (Homo sapiens, SK-OV-3, 24 h) fell in the range of 1000 to 5000 nM.

For `CC(c1cccc(C#N)c1)N(C(=O)Nc1ccccc1)C1CCCC1` (racemic) [Compound 186, 1-[1-(3-cyanophenyl)ethyl]-1-cyclopentyl-3-phenyl-urea], the IC50 (Homo sapiens, SK-OV-3, 24 h) fell in the range of 100 to 500 nM.

As to `Cc1ccc(CN(C(=O)Nc2ccc(C(N)=O)cc2)C2CCCC2)o1` [Compound 117, 4-[[cyclopentyl-[(5-methyl-2-furyl)methyl]carbamoyl]-amino]benzamide], the IC50 (Homo sapiens, SK-OV-3, 24 h) was in the range of 1000 to 5000 nM.

Regarding `Cc1nocc1N(Cc1cccc(C(F)(F)F)c1)C(=O)Nc1ccc(C#CCO)cc1` [Compound 315, 3-[4-(3-hydroxyprop-1-ynyl)phenyl]-1-(3-methylisoxazol-4-yl)-1-[[3-(trifluoromethyl)phenyl]methyl]urea], the IC50 (Homo sapiens, SK-OV-3, 24 h) is less than 100 nM.

For `Cc1ccc(CN(C(=O)Nc2ccc(C#N)cc2)c2ccn(C)n2)o1` [Compound 221, 3-(4-cyanophenyl)-1-[(5-methyl-2-furyl)methyl]-1-(1-methylpyrazol-3-yl)urea], where the note is “Homo sapiens, SK-OV-3, 24 h”, the 50% inhibitory concentration (IC50) fell in the range of 500 to 1000 nM.

Regarding `Cc1ccc(CN(C(=O)Nc2ccc(C#N)cc2)c2nccn2C)o1` [Compound 233, 3-(4-cyanophenyl)-1-[(5-methyl-2-furyl)methyl]-1-(1-methylimidazol-2-yl)urea], the half-maximal inhibitory concentration (IC50) (Homo sapiens, SK-OV-3, 24 h) fell in the range of 1000 to 5000 nM.

In the case of `O=C(Nc1ccc2c(c1)CCC2)N(Cc1cccs1)C1CCCC1` [Compound 9, 1-cyclopentyl-3-indan-5-yl-1-(2-thienylmethyl)urea], the IC50 (Homo sapiens, SK-OV-3, 24 h) is 1000 to 5000 nM.

For the compound `Cc1ccc(CN(C(=O)Nc2ccc(C#CCO)cc2)c2nccn2C)o1` [Compound 309, 3-[4-(3-hydroxyprop-ynyl)phenyl]-1-[(5-methyl-2-furyl)methyl]-1-(1-methylimidazol-2-yl)urea], the IC50 (Homo sapiens, SK-OV-3, 24 h) fell in the range of 100 to 500 nM.

Take `Cc1ccc(N(Cc2cccs2)C(=O)NC2CCCCC2)cc1` [Compound 201, 3-cyclohexyl-1-(p-tolyl)-1-(2-thienylmethyl) urea]: where the note is “Homo sapiens, SK-OV-3, 24 h”, the IC50 fell in the range of 1000 to 5000 nM.

Turning to `Cc1ccc(CN(C(=O)Nc2ccc(Cl)cc2)c2cnc[nH]2)o1` [Compound 183, 3-(4-chlorophenyl)-1-(1H-imidazol-5-yl)-1-[(5-methyl-2-furyl)methyl]urea], for the setting “Homo sapiens, SK-OV-3, 24 h”, the IC50 lay in the range of 1000 to 5000 nM.

Consider `Cn1ncc2ccc(CN(C(=O)Nc3ccc(C#N)cc3)C3CCC3)cc21` [Compound 217, 3-(4-cyanophenyl)-1-cyclobutyl-1-[(1-methylindazol-6-yl)methyl]urea], for which the IC50 (Homo sapiens, SK-OV-3, 24 h) was 100 to 500 nM.

For `Cc1ccc(CN(C(=O)Nc2ccc(C#CC3CC3)cc2)C2CCCC2)o1` [Compound 107, 1-cyclopentyl-3-[4-(2-cyclopropylethynyl)phenyl]-1-[(5-methyl-2-furyl)methyl]urea], the IC50 (Homo sapiens, SK-OV-3, 24 h) was less than 100 nM.

As to `O=C(Nc1ccc(Cl)cc1)N(Cc1cnoc1)C1CCCC1` [Compound 63, 3-(4-chlorophenyl)-1-cyclopentyl-1-(isoxazol-4-ylmethyl)urea], where the note is “Homo sapiens, SK-OV-3, 24 h”, the IC50 lay in the range of 1000 to 5000 nM.

Take `C#Cc1ccc(NC(=O)N(Cc2ccc(C)o2)C2COC2)cc1` [Compound 236, 3-(4-ethynylphenyl)-1-[(5-methyl-2-furyl)methyl]-1-(oxetan-3-yl)urea]: the IC50 (Homo sapiens, SK-OV-3, 24 h) fell in the range of 500 to 1000 nM.

On to `O=C(Nc1ccc(Cl)cc1)N(Cc1cn2ccncc2n1)C1CCC1` [Compound 212, 3-(4-chlorophenyl)-1-cyclobutyl-1-(imidazo[1,2-a]pyrazin-2-ylmethyl)urea], for which, for the setting “Homo sapiens, SK-OV-3, 24 h”, the IC50 is 1000 to 5000 nM.

Consider `N#Cc1ccc(NC(=O)N(Cc2cc3ncccc3o2)C2CCC2)cc1` [Compound 249, 3-(4-cyanophenyl)-1-cyclobutyl-1-(furo[3,2-b]pyridin-2-ylmethyl)urea], for which the half-maximal inhibitory concentration (IC50) (Homo sapiens, SK-OV-3, 24 h) was greater than 5000 nM.

`O=C(Nc1ccc(Cl)cc1)N(Cc1cccnc1)C1CCCC1` [Compound 66, 3-(4-chlorophenyl)-1-cyclopentyl-1-(3-pyridylmethyl)urea]: where the note is “Homo sapiens, SK-OV-3, 24 h”, the IC50 is 100 to 500 nM.

Regarding `CC(=O)c1ccc(NC(=O)N(Cc2ccc(C)o2)C2CCCC2)cc1` [Compound 94, 3-(4-acetylphenyl)-1-cyclopentyl-1-[(5-methyl-2-furyl)methyl]urea], the IC50 (Homo sapiens, SK-OV-3, 24 h) is 1000 to 5000 nM.

For `CCc1ccc(NC(=O)N(Cc2ccc(C)o2)C2CCCC2)cc1` [Compound 177, 1-cyclopentyl-3-(4-ethylphenyl)-1-[(5-methyl-2-furyl)methyl]urea], the IC50 (Homo sapiens, SK-OV-3, 24 h) was less than 100 nM.

On to `N#Cc1cccc(CN(C(=O)Nc2ccc(Cl)cc2)C2CCCC2)n1` [Compound 157, 3-(4-chlorophenyl)-1-[(6-cyano-2-pyridyl)methyl]-1-cyclopentyl-urea], for which the IC50 (Homo sapiens, SK-OV-3, 24 h) lay in the range of 100 to 500 nM.

Turning to `C#Cc1ccc(NC(=O)N(Cc2ccno2)C2CCCC2)cc1` [Compound 163, 1-cyclopentyl-3-(4-ethynylphenyl)-1-(isoxazol-5-ylmethyl)urea], where the note is “Homo sapiens, SK-OV-3, 24 h”, the IC50 is less than 100 nM.

For the compound `COc1ccc(NC(=O)N(Cc2cccs2)C2CCCC2)c(OC)c1` [Compound 18, 1-cyclopentyl-3-(2,4-dimethoxyphenyl)-1-(2-thienylmethyl)urea], where the note is “Homo sapiens, SK-OV-3, 24 h”, the IC50 was 1000 to 5000 nM.

Consider `O=C(Nc1ccc(Cl)cc1)N(Cc1ccccn1)C1CCCC1` [Compound 69, 3-(4-chlorophenyl)-1-cyclopentyl-1-(2-pyridylmethyl)urea], for which the half-maximal inhibitory concentration (IC50) (Homo sapiens, SK-OV-3, 24 h) was 100 to 500 nM.

On to `O=C(NCc1ccc(F)cc1)N(Cc1cccs1)C1CCCC1` [Compound 8, 1-cyclopentyl-3-[(4-fluorophenyl)methyl]-1-(2-thienylmethyl)urea], for which the IC50 (Homo sapiens, SK-OV-3, 24 h) was greater than 5000 nM.

Take `Cc1ccc(CN(C(=O)Nc2ccccc2)C2CC2)o1` [Compound 167, 1-cyclopropyl-1-[(5-methyl-2-furyl)methyl]-3-phenyl-urea]: the concentration for half-maximal inhibition (IC50) (Homo sapiens, SK-OV-3, 24 h) was in the range of 1000 to 5000 nM.

For the compound `Cc1nocc1N(CC1CCC2(CC1)COC2)C(=O)Nc1ccc(Cl)cc1` [Compound 326, 3-(4-chlorophenyl)-1-(3-methylisoxazol-4-yl)-1-(2-oxaspiro[3.5]nonan-7-ylmethyl)urea], where the note is “Homo sapiens, SK-OV-3, 24 h”, the IC50 is greater than 5000 nM.

Consider `CC(c1cccc(C#N)c1)N(C(=O)Nc1ccc(C#N)cc1)C1CCC1` (racemic) [Compound 184, 3-(4-cyanophenyl)-1-[1-(3-cyanophenyl)ethyl]-1-cyclobutyl-urea], for which, for the setting “Homo sapiens, SK-OV-3, 24 h”, the IC50 fell in the range of 100 to 500 nM.

The values above are taken from patent publication US20210238139A1, “MODULATORS OF TRYPTOPHAN CATABOLISM” (E-Therapeutics PLC, priority 2018, published 2021).
